In ChEMBL document CHEMBL4311972, “Discovery of a benzothiophene-flavonol halting miltefosine and antimonial drug resistance in Leishmania parasites through the application of medicinal chemistry, screening and genomics” (Eur J Med Chem, 2019):

Columns and labels:
[1] = Cytotoxicity against human THP1 cells by MTT assay; assay type: cell-based, THP-1
[2] = molecular target: T1, CYP1A2 (Homo sapiens, UniProt P05177); experiment: Inhibition of human microsomal CYP1A2 expressed in baculovirus infected insect cells at 10 uM using luciferin-1A2 as substrate preincubated with enzyme/substrate mixture for 30 mins followed by further incubation with NADPH for 30 mins by CYP450 luciferase Glo assay relative to control; assay type: ADME; conditions: probe luciferin-1A2
T1 sequence (P05177 whole entry): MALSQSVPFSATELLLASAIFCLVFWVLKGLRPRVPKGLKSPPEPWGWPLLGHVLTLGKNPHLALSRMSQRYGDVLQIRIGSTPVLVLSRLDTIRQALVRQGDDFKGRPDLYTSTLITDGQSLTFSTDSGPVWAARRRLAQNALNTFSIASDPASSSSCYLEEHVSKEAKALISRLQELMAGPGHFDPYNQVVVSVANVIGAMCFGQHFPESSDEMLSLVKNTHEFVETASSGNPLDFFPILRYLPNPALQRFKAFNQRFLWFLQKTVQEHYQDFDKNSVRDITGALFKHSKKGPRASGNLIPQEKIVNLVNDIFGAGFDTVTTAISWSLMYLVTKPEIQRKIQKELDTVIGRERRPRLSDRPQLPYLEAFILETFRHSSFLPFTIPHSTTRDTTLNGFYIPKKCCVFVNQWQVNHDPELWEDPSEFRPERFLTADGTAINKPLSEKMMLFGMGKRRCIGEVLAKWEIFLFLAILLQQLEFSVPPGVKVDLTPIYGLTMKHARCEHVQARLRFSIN

[3] = system: Trypanosoma brucei; experiment: Antitrypanosomal activity against Trypanosoma brucei bloodstream form assessed as parasite growth inhibition incubated for 72 hrs by resazurin dye based assay; assay type: functional, organism-based
[4] = molecular target: hERG (KCNH2) (Homo sapiens, UniProt Q12809); experiment: Inhibition of human ERG at 10 uM incubated for 2 hrs by fluorescence polarization assay relative to control
[5] = Selectivity index, ratio of CC50 for human THP1 cells to EC50 for Trypanosoma brucei bloodstream form; assay type: toxicity; conditions: read-out: Ratio CC50/EC50
[6] = system: 786-0; experiment: Mitochondrial toxicity in human 786-0 cells at 10 uM incubated with compound for 6 hrs followed by incubation with MitoTracker Red chloromethyl-X-rosamine dye for 45 mins by imaging analysis; assay type: cell-based; conditions: 786-0, 6 h
[7] = molecular target: CYP3A4 (Homo sapiens, UniProt P08684); experiment: Inhibition of human microsomal CYP3A4 expressed in baculovirus infected insect cells at 10 uM using luciferin-IPA as substrate preincubated with enzyme/substrate mixture for 30 mins followed by further incubation with NADPH for 30 mins by CYP450 luciferase Glo assay relative to control; assay type: ADME; conditions: probe luciferin-IPA
[8] = molecular target: CYP2D6 (Homo sapiens, UniProt P10635); experiment: Inhibition of human microsomal CYP2D6 expressed in baculovirus infected insect cells at 10 uM using luciferin-ME as substrate preincubated with enzyme/substrate mixture for 30 mins followed by further incubation with NADPH for 30 mins by CYP450 luciferase Glo assay relative to control; assay type: ADME; conditions: probe luciferin-ME
[9] = molecular target: CYP2C19 (Homo sapiens, UniProt P33261); experiment: Inhibition of human microsomal CYP2C19 expressed in baculovirus infected insect cells at 10 uM using luciferin-H EGE as substrate preincubated with enzyme/substrate mixture for 30 mins followed by further incubation with NADPH for 30 mins by CYP450 luciferase Glo assay relative to control; assay type: ADME; conditions: probe luciferin-H EGE
[10] = molecular target: CYP2C9 (Homo sapiens, UniProt P11712); experiment: Inhibition of human microsomal CYP2C9 expressed in baculovirus infected insect cells at 10 uM using luciferin-H as substrate preincubated with enzyme/substrate mixture for 30 mins followed by further incubation with NADPH for 30 mins by CYP450 luciferase Glo assay relative to control; assay type: ADME; conditions: probe luciferin-H
[11] = Cytotoxicity against human A549 cells assessed as cell growth at […] incubated for 48 hrs by Celltiter-Glo luminescence assay relative to control; assay type: cell-based; set-up: dose or concentration left out as unconfirmed; conditions: read-out: Activity
[12] = system: Leishmania infantum; experiment: Antileishmanial activity against luciferase expressing intracellular amastigote stage of Leishmania infantum infected in human THP1 cells assessed as parasite growth inhibition measured after 48 to 72 hrs by steady-glo luciferase assay; assay type: functional, organism-based
[13] = Trypanosoma brucei, 72 h, read-out: EC50

hERG (KCNH2), sequence (Q12809 whole entry): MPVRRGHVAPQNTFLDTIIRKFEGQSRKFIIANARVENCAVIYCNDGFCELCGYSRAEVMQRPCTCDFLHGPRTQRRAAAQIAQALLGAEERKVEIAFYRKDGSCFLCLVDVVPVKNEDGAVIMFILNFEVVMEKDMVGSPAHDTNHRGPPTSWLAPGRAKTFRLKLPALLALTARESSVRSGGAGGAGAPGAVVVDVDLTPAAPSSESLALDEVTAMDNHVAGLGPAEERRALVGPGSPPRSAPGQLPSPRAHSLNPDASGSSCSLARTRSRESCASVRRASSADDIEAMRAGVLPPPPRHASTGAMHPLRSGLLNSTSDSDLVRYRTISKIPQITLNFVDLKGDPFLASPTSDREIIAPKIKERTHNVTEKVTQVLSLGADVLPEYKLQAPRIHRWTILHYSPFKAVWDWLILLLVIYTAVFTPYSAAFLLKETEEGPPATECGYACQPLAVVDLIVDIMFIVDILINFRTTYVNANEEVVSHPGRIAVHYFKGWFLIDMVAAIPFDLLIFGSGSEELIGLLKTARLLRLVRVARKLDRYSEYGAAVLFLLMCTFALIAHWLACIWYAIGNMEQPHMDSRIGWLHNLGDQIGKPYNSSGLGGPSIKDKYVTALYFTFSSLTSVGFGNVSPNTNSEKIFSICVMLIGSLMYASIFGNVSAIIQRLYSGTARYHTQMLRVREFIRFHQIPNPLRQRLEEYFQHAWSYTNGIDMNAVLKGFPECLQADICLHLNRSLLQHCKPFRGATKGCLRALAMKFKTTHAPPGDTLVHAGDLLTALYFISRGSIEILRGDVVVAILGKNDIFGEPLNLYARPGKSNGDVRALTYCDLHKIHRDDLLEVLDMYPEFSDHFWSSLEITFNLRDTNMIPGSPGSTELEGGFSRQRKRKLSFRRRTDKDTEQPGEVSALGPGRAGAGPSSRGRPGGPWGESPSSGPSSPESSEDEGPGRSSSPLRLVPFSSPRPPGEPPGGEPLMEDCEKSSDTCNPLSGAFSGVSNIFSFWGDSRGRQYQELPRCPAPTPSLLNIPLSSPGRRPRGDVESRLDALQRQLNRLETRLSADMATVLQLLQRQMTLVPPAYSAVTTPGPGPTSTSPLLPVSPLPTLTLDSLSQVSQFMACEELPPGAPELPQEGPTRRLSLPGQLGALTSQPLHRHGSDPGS
CYP2C19, sequence (P33261 whole entry): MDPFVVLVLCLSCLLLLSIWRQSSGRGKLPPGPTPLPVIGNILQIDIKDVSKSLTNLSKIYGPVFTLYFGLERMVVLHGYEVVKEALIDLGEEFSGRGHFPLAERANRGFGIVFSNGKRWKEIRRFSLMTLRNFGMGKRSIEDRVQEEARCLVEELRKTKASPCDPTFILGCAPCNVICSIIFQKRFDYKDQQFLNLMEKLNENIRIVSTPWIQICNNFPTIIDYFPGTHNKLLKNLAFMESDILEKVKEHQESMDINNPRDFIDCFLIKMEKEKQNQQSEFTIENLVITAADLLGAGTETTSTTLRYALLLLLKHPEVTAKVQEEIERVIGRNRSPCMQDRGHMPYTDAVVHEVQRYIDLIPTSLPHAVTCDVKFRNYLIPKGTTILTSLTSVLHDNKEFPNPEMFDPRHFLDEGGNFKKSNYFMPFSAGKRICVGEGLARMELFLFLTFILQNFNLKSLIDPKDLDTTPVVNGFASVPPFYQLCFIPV
CYP3A4, sequence (P08684 whole entry): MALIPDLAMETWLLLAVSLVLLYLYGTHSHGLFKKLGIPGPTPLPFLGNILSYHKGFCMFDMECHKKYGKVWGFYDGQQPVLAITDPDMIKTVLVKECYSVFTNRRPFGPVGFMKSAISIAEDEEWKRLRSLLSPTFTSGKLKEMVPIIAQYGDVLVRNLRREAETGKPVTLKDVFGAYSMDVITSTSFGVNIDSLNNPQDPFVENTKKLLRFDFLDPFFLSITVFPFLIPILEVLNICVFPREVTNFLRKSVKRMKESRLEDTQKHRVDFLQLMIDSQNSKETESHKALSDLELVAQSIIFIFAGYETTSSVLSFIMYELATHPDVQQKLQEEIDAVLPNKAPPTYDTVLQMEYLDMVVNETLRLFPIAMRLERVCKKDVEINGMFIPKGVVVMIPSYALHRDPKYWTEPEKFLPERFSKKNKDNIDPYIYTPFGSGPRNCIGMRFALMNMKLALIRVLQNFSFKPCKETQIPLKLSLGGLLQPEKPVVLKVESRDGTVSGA
CYP2D6, sequence (P10635 whole entry): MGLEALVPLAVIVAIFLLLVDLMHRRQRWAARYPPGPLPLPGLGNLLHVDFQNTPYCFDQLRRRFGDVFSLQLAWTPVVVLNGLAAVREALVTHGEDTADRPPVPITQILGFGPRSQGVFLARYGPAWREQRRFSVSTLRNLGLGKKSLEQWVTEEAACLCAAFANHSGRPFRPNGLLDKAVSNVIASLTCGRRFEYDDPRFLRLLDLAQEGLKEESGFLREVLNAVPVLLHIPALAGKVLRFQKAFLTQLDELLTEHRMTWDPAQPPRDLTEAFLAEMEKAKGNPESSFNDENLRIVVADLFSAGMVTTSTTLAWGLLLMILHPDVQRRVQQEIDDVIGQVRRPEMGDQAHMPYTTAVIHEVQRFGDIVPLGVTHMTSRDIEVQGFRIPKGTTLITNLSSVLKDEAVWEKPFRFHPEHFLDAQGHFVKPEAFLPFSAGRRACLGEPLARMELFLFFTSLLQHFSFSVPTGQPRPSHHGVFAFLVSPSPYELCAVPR
CYP2C9, sequence (P11712 whole entry): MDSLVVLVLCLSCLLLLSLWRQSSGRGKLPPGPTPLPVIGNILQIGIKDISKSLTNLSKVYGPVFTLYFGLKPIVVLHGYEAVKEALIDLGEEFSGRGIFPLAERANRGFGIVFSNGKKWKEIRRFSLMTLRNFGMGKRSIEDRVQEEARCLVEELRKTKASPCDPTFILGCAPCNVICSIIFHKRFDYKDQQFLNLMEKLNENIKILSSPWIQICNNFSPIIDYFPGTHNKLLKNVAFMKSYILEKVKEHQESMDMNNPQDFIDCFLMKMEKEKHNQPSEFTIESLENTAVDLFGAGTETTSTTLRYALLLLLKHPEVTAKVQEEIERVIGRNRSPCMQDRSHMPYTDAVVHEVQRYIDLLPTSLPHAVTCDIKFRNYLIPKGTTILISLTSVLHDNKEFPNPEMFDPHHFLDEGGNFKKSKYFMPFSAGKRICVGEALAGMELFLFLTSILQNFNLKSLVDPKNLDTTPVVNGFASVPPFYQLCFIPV

inhibition at 0.5 h, 10 µM [2] | EC50 [3, 13] | inhibition at 0.5 h, 10 µM [7] | inhibition at 0.5 h, 10 µM [8] | inhibition at 0.5 h, 10 µM [9] | inhibition at 0.5 h, 10 µM [10] | EC50 [3] | SMILES | CC50 [1] | inhibition at 2 h, 10 µM [4] | selectivity ratio [5] | Activity [6] | viability at 48 h [11] | EC50 [12]
96.1% | 4.9 µM | 17.6% | 40.1% | 35.2% | 40.1% | – | Cc1csc(-c2oc3ccc(O)cc3c(=O)c2O)c1 | 10 to 25 µM | 16.1% | 2 | 4.24% | 93.8% | –
106% | 3.4 µM | 24.5% | 21.2% | 19.2% | 53.5% | – | COc1cccc2oc(-c3cc(C)cs3)c(O)c(=O)c12 | 12.5 to 25 µM | -7.47% | 4 | -7.63% | 25.3% | –
94.8% | 5.7 µM | 4.51% | 30.6% | 20.9% | 29.2% | – | COc1ccc2oc(-c3cc(C)cs3)c(O)c(=O)c2c1 | 25 to 50 µM | 6.55% | 4 | -5.29% | 98.8% | –
98.8% | 2.8 µM | 23.5% | 25.3% | 26.2% | 35.1% | – | Cc1csc(-c2oc3ccc(C)cc3c(=O)c2O)c1 | > 100 µM | 13.2% | 36 | -13.79% | 15.3% | –
81.8% | – | 11.5% | 24.7% | 46.1% | 23% | Not Active | CCOc1ccc2c(=O)c(O)c(-c3csc4ccccc34)oc2c1 | 12.5 to 25 µM | -3.21% | – | 29.51% | 11.9% | Not Active
97.7% | 2.6 µM | -1.84% | 6.45% | 31.3% | 28.9% | – | O=c1c(O)c(-c2csc3ccccc23)oc2ccccc12 | < 25 µM | -22.7% | – | -22.23% | 50.3% | Not Active
101% | 1.4 µM | 11% | -8% | 32.6% | 28.8% | – | COc1ccc2oc(-c3c[nH]c4ccccc34)c(O)c(=O)c2c1 | 12.5 to 25 µM | 41.2% | 8 | -12.53% | 20.9% | –
103% | 3 µM | 12.5% | 33.6% | 77.9% | 59.6% | – | COc1ccc2c(=O)c(O)c(-c3cc(C)cs3)oc2c1 | 25 to 50 µM | 5.93% | 8 | 0.01% | 80.9% | –
81.3% | 2 µM | -19.3% | 16% | 22.4% | 19.4% | – | Cc1ccc2oc(-c3csc4ccccc34)c(O)c(=O)c2c1 | < 12.5 µM | -21.6% | – | -21.98% | 129% | Not Active
108% | 4.9 µM | 79.4% | 9.1% | 35.2% | 45.5% | – | COc1ccc2c(=O)c(O)c(-c3sccc3C)oc2c1 | 12.5 to 25 µM | -3.84% | 3 | -8.17% | 65% | –
61.8% | 3.9 µM | 44.6% | 21.9% | 24.5% | 25.8% | – | COc1ccc2oc(-c3cccc(-c4ccc5c(c4)OCO5)c3)c(O)c(=O)c2c1 | 25 to 50 µM | 0.34% | 6 | -1.63% | 30.5% | –
57.5% | 5.34 µM | -5.72% | -3.33% | -6.35% | 5.82% | – | O=c1c(O)c(-c2csc3ccccc23)oc2cc(Cl)ccc12 | 50 to 100 µM | 16.3% | – | 81.33% | -49.6% | Not Active
51.6% | 3.7 µM | 50.1% | 11.8% | 31.8% | 33.6% | – | COc1ccc2oc(-c3csc4ccccc34)c(OC(=O)C(C)(C)C)c(=O)c2c1 | 12.5 to 25 µM | -23.8% | – | -47.48% | 133% | Not Active
83.1% | 3 µM | 52.5% | 40.6% | 22% | 40.1% | – | COc1ccc2oc(-c3cccc(-c4ccc(OC)c(OC)c4)c3)c(O)c(=O)c2c1 | 25 to 50 µM | -14.3% | 8 | -9.66% | 19.5% | –
94.2% | 4.5 µM | 13.2% | 28.1% | 39.1% | 37% | – | Cc1ccc2c(=O)c(O)c(-c3csc4ccccc34)oc2c1 | 50 to 100 µM | -15% | – | -19.4% | 50.1% | Not Active
57.2% | – | 48.2% | 66.5% | 31.7% | 19.6% | Not Active | CCCOc1c(-c2csc3ccccc23)oc2ccc(OC)cc2c1=O | 12.5 to 25 µM | 33.9% | – | 95.63% | 60.1% | Not Active
92.4% | – | 46.9% | 50.2% | 54.5% | 14.1% | Not Active | CCOc1c(-c2csc3ccccc23)oc2ccc(OC)cc2c1=O | 25 to 50 µM | 11.8% | – | -27.16% | 120% | Not Active

SMILES | inhibition at 0.5 h, 10 µM [2] | EC50 [3, 13] | inhibition at 0.5 h, 10 µM [7] | inhibition at 0.5 h, 10 µM [8] | inhibition at 0.5 h, 10 µM [9] | inhibition at 0.5 h, 10 µM [10] | EC50 [3] | CC50 [1] | inhibition at 2 h, 10 µM [4] | selectivity ratio [5] | Activity [6] | viability at 48 h [11] | EC50 [12]
COc1ccc2oc(-c3csc4ccccc34)c(OC(=O)N(C)C)c(=O)c2c1 | 61.1% | – | 47.4% | 20.3% | 26.3% | -6.48% | Not Active | 12.5 to 25 µM | -17.9% | – | -42.09% | 104% | Not Active
